Measurements as given in patent US20260363244A1, “HERBICIDAL COMPOSITIONS COMPRISING URACILS” (BASF SE, priority 2022, published 2026).
Read-outs that look alike come from different tables or passages of the source.

Key:
Format in all cases: in vivo
[1] = tested on: Sorghum halepense; assay: greenhouse post-emergence herbicidal activity, SORHA; conditions: GS 11-33, 20 DAT
Description: (§1) The following examples serve to illustrate the invention.
(§2) The culture containers used were plastic pots containing loamy sand with approximately 3.0% of humus as substrate. The seeds of the test plants were sown separately for each species.
(§3) For the post-emergence treatment, the test plants were grown to a plant height of from 3 to 15 cm, depending on the plant habit, and only then treated with the active compounds which had been suspended or emulsified in water. To this end, the test plants were either sown directly, and grown in the same containers, or they were first grown separately as seedlings and transplanted into the test containers a few days prior to treatment.
(§4) Depending on the species, the plants were kept at 10-25 °C and 20-35 °C, respectively. The test period extended over 2 to 4 weeks. During this time, the plants were tended and their response to the individual treatments was evaluated.
(§5) Evaluation was carried out using a scale from 0 to 100. 100 means no emergence of the plants, or complete destruction of at least the above-ground parts, and 0 means no damage or normal course of growth. A good herbicidal activity is given at values of at least 70, and very good herbicidal activity is given at values of at least 85.
(§6) The respective stated components A and B, and if appropriate, C were formulated as a 5% by weight strength emulsion concentrate and, with addition of the amount of solvent system, introduced into the spray liquor used for applying the active compound. In the examples, the solvent used was water.
(§7) In the examples below, using the method of S. R. Colby (1967) “Calculating synergistic and antagonistic responses of herbicide combinations”, Weeds 15, p. 22ff., the value E, which is expected if the activity of the individual active compounds is only additive, was calculated.
(§8) E=X+Y−(X·Y/100) • where • X=percent activity using active compound A at an application rate a; • Y=percent activity using active compound B at an application rate b; • E=expected activity (in %) by A+B at application rates a+b.
(§9) The plants used in the greenhouse experiments were of the following species
(§10) In this context, a.i. means active ingredient, based on 100% active ingredient.
(§11) As indicated the application was post emergent (POST) at the respective growth stage (GS) of the weed.
(§12) Assessment was at the indicated days after treatment (DAT).

[2] = tested on: Setaria faberi; assay: greenhouse post-emergence herbicidal activity, SETFA; conditions: Setaria faberi, post-emergence, 480 h, GS 11-33, 20 DAT, read-out: % activity (solo application)
Description: as §1, §2, §3, §4, §5, §6, §7, §8, §9, §10, §11, §12

[3] = tested on: Abutilon theophrasti; assay: greenhouse post-emergence herbicidal activity, ABUTH; conditions: read-out: % activity (solo application); for activity at 0.4 g/ha: 0.4 gai/ha; for activity at 0.8 g/ha: 0.8 gai/ha
Description: as §1, §2, §3, §4, §5, §6, §7, §8, §9, §10, §11, §12

[4] = tested on: Lolium multiflorum; assay: greenhouse post-emergence herbicidal activity, LOLMU; conditions: for activity at […]: Lolium multiflorum, post-emergence, 3.2 gai/ha, read-out: % activity (solo application)
Description: as §1, §2, §3, §4, §5, §6, §7, §8, §9, §10, §11, §12

[5] = tested on: Eleusine indica; assay: greenhouse post-emergence herbicidal activity, ELEIN; conditions: read-out: % activity (solo application); for activity at 0.4 g/ha: 0.4 gai/ha
Description: as §1, §2, §3, §4, §5, §6, §7, §8, §9, §10, §11, §12

[6] = tested on: Setaria viridis; assay: greenhouse post-emergence herbicidal activity, SETVI; conditions: for activity at 0.4 g/ha / activity at 0.8 g/ha / activity at […]: Setaria viridis, post-emergence, read-out: % activity (solo application); for activity at 0.4 g/ha: 0.4 gai/ha; for activity at 0.8 g/ha: 0.8 gai/ha; for % activity: solo application, SETVI
Description: as §1, §2, §3, §4, §5, §6, §7, §8, §9, §10, §11, §12

[7] = tested on: Amaranthus tamariscinus; assay: greenhouse post-emergence herbicidal activity, AMATA; conditions: read-out: % activity (solo application); for activity at 0.4 g/ha: 0.4 gai/ha
Description: as §1, §2, §3, §4, §5, §6, §7, §8, §9, §10, §11, §12

[8] = tested on: Commenline benghalensis; assay: greenhouse post-emergence herbicidal activity, COMBE; conditions: read-out: % activity (solo application); for activity at […]: 168 h, GS 11-33, 7 DAT
Description: as §1, §2, §3, §4, §5, §6, §7, §8, §9, §10, §11, §12

[9] = tested on: Kochia scoparia; assay: greenhouse post-emergence herbicidal activity, KCHSC; conditions: for activity at 0.4 g/ha: 0.4 gai/ha; for % activity: solo application, KCHSC
Description: as §1, §2, §3, §4, §5, §6, §7, §8, §9, §10, §11, §12

[10] = tested on: Brachiaria decumbens; assay: greenhouse post-emergence herbicidal activity, BRADC; conditions: for activity at […]: Urochloa decumbens, post-emergence, read-out: % activity (solo application)
Description: as §1, §2, §3, §4, §5, §6, §7, §8, §9, §10, §11, §12

[11] = tested on: Digitaria sanguinales; assay: greenhouse post-emergence herbicidal activity, DIGSA
Description: as §1, §2, §3, §4, §5, §6, §7, §8, §9, §10, §11, §12

[12] = tested on: Avena fatua; assay: greenhouse post-emergence herbicidal activity, AVEFA; conditions: read-out: % activity (solo application); for activity at 0.4 g/ha: 0.4 gai/ha
Description: as §1, §2, §3, §4, §5, §6, §7, §8, §9, §10, §11, §12

[13] = tested on: Echinocloa crus-galli; assay: greenhouse post-emergence herbicidal activity, ECHCG; conditions: for activity at 0.4 g/ha: Echinochloa crus-galli, post-emergence, 0.4 gai/ha, read-out: % activity (solo application); for % activity: solo application, ECHCG
Description: as §1, §2, §3, §4, §5, §6, §7, §8, §9, §10, §11, §12

[14] = 168 h, GS 11-33, 7 DAT, 3.2 gai/ha
[15] = 480 h, GS 11-33, 20 DAT, 3.2 gai/ha
[16] = 192 h, GS 11-33, 8 DAT, 3.2 gai/ha
[17] = 480 h, GS 11-33, 20 DAT, 1.6 gai/ha
[18] = GS 11-33, 20 DAT, use rate 0.4 gai/ha

## C=C[C@]1(C(=O)N[C@H]2CO[C@@H](C(=O)OC)C2)CC(c2cc(F)cc(F)c2)=NO1 (mixture of isomers) [ISOX-8, methyl (2RS,4RS)-4-({[(5S)-3-(3,5-difluorophenyl)-5-vinyl-4,5-dihydroisoxazol-5-yl]carbonyl}amino)tetrahydrofuran-2-carboxylate]
[1]; Sorghum halepense, post-emergence, 480 h, 0.8 gai/ha, isoxazolin, read-out: % activity (solo application)
  activity at 0.8 g/ha: 55%
[1]; Sorghum halepense, post-emergence, 480 h, 1.6 gai/ha, read-out: % activity (solo application)
  activity at […]: 60%
[1]; Sorghum halepense, post-emergence, 480 h, 3.2 gai/ha, read-out: % activity (solo application)
  activity at […]: 85%
[1]; solo application, SORHA, use rate 0.8 gai/ha
  % activity: 35%
[2]; 0.4 gai/ha
  activity at 0.4 g/ha: 20%
[2]; 1.6 gai/ha
  activity at […]: 60%
[2]; 3.2 gai/ha
  activity at […]: 90%
[3]; 168 h, GS 11-33, 7 DAT
  activity at 0.4 g/ha: 5%
  activity at 0.8 g/ha: 5%
[3]; 168 h, GS 11-33, 7 DAT, 1.6 gai/ha
  activity at […]: 10%
[3]; [14]
  activity at […]: 15%
[3]; 480 h, GS 11-33, 20 DAT
  activity at 0.4 g/ha: 5%
  activity at 0.8 g/ha: 5%
[3]; [15]
  activity at […]: 20%
[4]; 168 h, GS 11-33, 7 DAT
  activity at […]: 50%
[4]; 480 h, GS 11-33, 20 DAT
  activity at […]: 80%
[4]; solo application, LOLMU, GS 11-33, 7 DAT, use rate 3.2 gai/ha
  % activity: 50%
[5]; 168 h, GS 11-33, 7 DAT
  activity at 0.4 g/ha: 10%
[5]; 480 h, GS 11-33, 20 DAT
  activity at 0.4 g/ha: 5%
[5]; [15]
  activity at […]: 70%
[6]; 192 h, GS 11-33, 8 DAT
  activity at 0.4 g/ha: 10%
  activity at 0.8 g/ha: 25%
[6]; [16]
  activity at […]: 40%
[6]; 480 h, GS 11-33, 20 DAT
  activity at 0.4 g/ha: 10%
  activity at 0.8 g/ha: 25%
[6]; [17]
  activity at […]: 50%
[6]; [15]
  activity at […]: 85%
[6]; GS 11-33, 8 DAT, use rate 0.4 gai/ha
  % activity: 10%
[6]; GS 11-33, 8 DAT, use rate 3.2 gai/ha
  % activity: 40%
[7]; 168 h, GS 11-33, 7 DAT
  activity at 0.4 g/ha: 40%
[7]; 480 h, GS 11-33, 20 DAT
  activity at 0.4 g/ha: 35%
[7]; 480 h, GS 11-33, 20 DAT, 0.8 gai/ha
  activity at 0.8 g/ha: 75%
[8]; 1.6 gai/ha
  activity at […]: 45%
[8]; 3.2 gai/ha
  activity at […]: 45%
[8]; 480 h, GS 11-33, 20 DAT, 0.4 gai/ha
  activity at 0.4 g/ha: 15%
[9]; Bassia scoparia, post-emergence, 168 h, GS 11-33, 7 DAT, read-out: % activity (solo application)
  activity at 0.4 g/ha: 10%
[9]; Bassia scoparia, post-emergence, 168 h, GS 11-33, 7 DAT, 0.8 gai/ha, isoxazolin, read-out: % activity (solo application)
  activity at 0.8 g/ha: 25%
[9]; Bassia scoparia, post-emergence, 168 h, GS 11-33, 7 DAT, 3.2 gai/ha, read-out: % activity (solo application)
  activity at […]: 55%
[9]; Bassia scoparia, post-emergence, 480 h, GS 11-33, 20 DAT, read-out: % activity (solo application)
  activity at 0.4 g/ha: 10%
[9]; Bassia scoparia, post-emergence, 480 h, GS 11-33, 20 DAT, 1.6 gai/ha, read-out: % activity (solo application)
  activity at […]: 60%
[9]; Bassia scoparia, post-emergence, 480 h, GS 11-33, 20 DAT, 3.2 gai/ha, read-out: % activity (solo application)
  activity at […]: 70%
[9]; GS 11-33, 7 DAT, use rate 3.2 gai/ha
  % activity: 55%
[9]; [18]
  % activity: 10%
[10]; 192 h, GS 11-33, 8 DAT, 1.6 gai/ha
  activity at […]: 25%
[10]; [16]
  activity at […]: 50%
[10]; [15]
  activity at […]: 30%
[10]; solo application, BRADC, GS 11-33, 20 DAT, use rate 1.6 gai/ha
  % activity: 20%
[11]; Digitaria, post-emergence, 192 h, GS 11-33, 8 DAT, 0.4 gai/ha, read-out: % activity (solo application)
  activity at 0.4 g/ha: 10%
[11]; Digitaria, post-emergence, 480 h, GS 11-33, 20 DAT, 3.2 gai/ha, read-out: % activity (solo application)
  activity at […]: 60%
[11]; solo application, DIGSA, GS 11-33, 20 DAT, use rate 0.8 gai/ha
  % activity: 10%
[12]; 168 h, GS 11-33, 7 DAT
  activity at 0.4 g/ha: 25%
[12]; [14]
  activity at […]: 70%
[12]; 480 h, GS 11-33, 20 DAT
  activity at 0.4 g/ha: 60%
[12]; [17]
  activity at […]: 85%
[12]; [15]
  activity at […]: 90%
[13]; 168 h, GS 11-33, 7 DAT
  activity at 0.4 g/ha: 15%
[13]; 480 h, GS 11-33, 20 DAT
  activity at 0.4 g/ha: 10%
[13]; [18]
  % activity: 10%
[13]; GS 11-33, 20 DAT, use rate 0.8 gai/ha
  % activity: 35%
